For seven molecules, IC50 and EC50 results are on record in US11401278B2, “Macrocyclic indole derivatives” (The Broad Institute, Inc., priority 2017, dated 2022).

SMILES strings stand for the structures. “And” between values parts separate entries of the source, which are not always exact repeats. Equal entries are not always repeated. Structures can show the parent of a compound that is named as a salt. Where two headings read alike, the source gives them in different places.

A word on the IC50: it is the concentration needed to halve the response being measured. For orientation: EC50 means the concentration that produces a half-maximal response.

Data set [1] relates to SUDHL5. Description: Antiproliferation assay (Assay 7), SUDHL5. Format: cell-based. The note with it: CellTiter-Glo, median, read-out: Antiproli SUDHL5 [M] (median) IC50. The method, boiled down:
(§1)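 Plate cells in treatment and day 0 reference plates; read day 0 plate with CellTiter-Glo after 10 min; incubate treated plates 72 h at 37° C; read them identically.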

Data set [2] relates to AMO-1. The experiment in a line: Antiproliferation assay (Assay 7), AMO-1. The note with it: CellTiter-Glo, 72 hours, several values per example. It is filed as cell-based. The method, boiled down: as §1
In general terms: Cellular ATP, detected with luciferase, serves as a proxy for viable cell number.

The test system of data set [3] is SUDHL10. Description: Induction of caspase-3/7 activity (Assay 4), SUDHL10. Conditions: caspase-3/7 induction, median. It is filed as cell-based. The method, boiled down: (§2)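 DLBCL cells were exposed to compounds for 3 hours at 37 °C, then caspase-3/7 activation was read with Caspase-Glo 3/7 reagent. After subtracting medium-only background, EC50s were derived with fixed C0=1 and the reference compound's maximal induction as plateau.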

Data set [4] deals with SUDHL10. Description: Induction of cytotoxicity (Assay 6), SUDHL10. The note with it: read-out: Cytotox SUDHL10 [M] (median) IC50, CellTiter-Glo, 5 hours, SUDHL10.
Procedure: Assay 6 Induction of Cytotoxicity Upon Treatment of Cells with Selected Compounds
Therefore, cytotoxicity assays were run in parallel in SUDHL5 and SUDHL10 cells.
The different cell lines were plated in culture medium (RPMI 1640 [GIBCO #22400-089] supplemented with 10% Fetal Bovine Serum) at a density of 3,300 cells in 30 μl/well in a sterile, solid black, flat bottom, polystyrene, TC-treated 384-well microplate (Corning #3571) using Multidrop Combi Reagent Dispenser. As a control, medium without cells was also added to the plate. Cells were incubated in a humidified incubator at 37° C. overnight. On the next day, the cells were treated with compounds (stock solution, 10 mM in DMSO) using the HP D300 Digital Dispenser in a concentration range of 3.3×10e-5 M (33 μM) to 5×10e-9 M (5 nM) in a single-dot curve with at least 16 dilutions and a DMSO concentration of 0.33%. Rim wells were excluded. The cells were incubated for 5 hours in a humidified incubator at 37° C. After this incubation, 30 μl of CellTiter-Glo® Luminescent Cell Viability reagent (Promega, G7573) was added to each well using the Multidrop Combi Reagent Dispenser, followed by 15 minutes incubation on a shaker at room temperature. Finally, luminescence was read at 0.1 ms, with a gain of 3000 using the PHERAstar FS microplate reader (BMG Labtech).
The test system of data set [5] is SUDHL5. The experiment in a line: Induction of caspase-3/7 activity (Assay 4), SUDHL5. The note with it: caspase-3/7 induction, median. It is filed as cell-based. The method, boiled down: as §2
Data set [6] concerns the target BCL-2 (Homo sapiens (Human), UniProt P10415). Description: Protein-protein interaction assay BCL-2/Bad BH3 peptide (BCL-2 assay, TR-FRET). It is filed as binding. The note with it: His-BCL-2 / Bad BH3 peptide, median. The procedure:
Assay 3 Protein-Protein Interaction Assay: BCL-2/Bad BH3 Peptide (BCL-2 Assay)
The dose-dependent inhibition by the compounds described in this invention of the interaction between BCL-2 and the BH3 domain of Bad (both human) was determined using a steady state binding competition assay with time-resolved fluorescence energy transfer (TR-FRET) readout. For that purpose BCL-2 (amino acids 1-211, C-terminal fused to a hexahistidine (6×His) tag (SEQ ID 5) and a synthetic Bad BH3-derived peptide of sequence Biotin-PEG2-PEG2-NLWAAQRYGRELRR-Nle-SDEFVDSFKK-amide (SEQ ID 4) served as protein receptor and tracer ligand respectively. The recombinant BCL-2 protein (expressed in E. coli) was purchased from BPS Bioscience (San Diego, Calif., USA). The Bad BH3-derived peptide can be obtained from e.g. Biosyntan (Berlin, Germany).
In the assay 11 different concentrations of each compound (0.1 nM, 0.33 nM, 1.1 nM, 3.8 nM, 13 nM, 44 nM, 0.15 μM, 0.51 μM, 1.7 μM, 5.9 μM and 20 μM) were typically measured as duplicates in the same microtiter plate. For that, 100-fold concentrated DMSO solutions were prepared by serial dilutions (1:3.4) of a 2 mM stock solution in a clear, 384-well microtiter plate (Greiner Bio-One, Frickenhausen, Germany). From there, 50 nl were transferred in a dark test plate (Greiner Bio-One, Frickenhausen, Germany). The assay was initiated by addition of 2 μl of a 2.5-fold concentrated His-BCL-2 solution (usually for a 1 nM end concentration in 5 μl reaction volume) in aqueous assay buffer [50 mM Tris/HCl pH 7, 100 mM sodium chloride (NaCl), 50 mM potassium fluoride (KF), 0.005% Tween-20, 2 mM DTT, 0.1% bovine gamma globulin (BGG)] to the compounds in the assay plate. This was followed by a 10-minute incubation step at 22° C. for pre-equilibration of the putative complex between His-BCL-2 and the compounds. After that, 3 μl of a 1.67-fold concentrated solution (in assay buffer) consisting of Bad BH3-derived peptide (1 nM end concentration) and TR-FRET detection reagents [1.67 nM anti-His-Eu cryptate and 1.67 nM streptavidin-XL665 (both from Cisbio Bioassays, Codolet, France)], were added.
The mixture was incubated in the dark for one hour at 22° C. and then overnight at 4° C. The formation of BCL-2/Bad complexes was determined by measuring the resonance energy transfer of the anti-His-Eu-cryptate antibody to the streptavidin-XL665 present in the reaction. For that purpose, the fluorescence emission at 620 nm and 665 nm after excitation at 330-350 nm was measured in a TR-FRET measuring instrument, for instance a Rubystar or a Pherastar (both from BMG Lab Technologies, Offenburg, Germany) or a Viewlux (Perkin-Elmer). The ratio of the emission at 665 nm and at 622 nm was used as indicator of the amount of BCL-2/Bad complexes present.
The resulting data (ratio) were normalized, taking 0% inhibition as the mean value of control measurements (usually 32 data points) where all reagents were included. In this case 50 nl DMSO were used instead of compounds. A 100% inhibition corresponded to the mean value of control measurements (usually 32 data points) where all reagents except BCL-2 were included. IC50 values were determined by regression analysis based on a 4 parameter equation (minimum, maximum, IC50, Hill; Y=Max+(Min−Max)/(1+(X/IC50)^HiII) using the Screener Software (Genedata).

In data set [7] the test system is MV-4-11. The experiment in a line: Antiproliferation assay (Assay 7), MV-4-11. Format: cell-based. The note with it: CellTiter-Glo, 72 hours, several values per example, listed as 06, read-out: Antiproli MV-4-11 [M] IC50. The procedure: Assessment of the Anti-Proliferative Effect of Compounds in Different Cell Lines
The impact of compounds on the proliferation of different cell lines was assessed using the CellTiter-Glo® Luminescent Cell Viability reagent from Promega (G7573).
In parallel, cells were plated in a reference (day 0) plate for time zero determination.
Rim wells were excluded. The cells were incubated for 72 hours in a humidified incubator at 37° C. The day 0 plate was measured by adding 30 μL/well of CTG solution (CellTiter-Glo® Luminescent Cell Viability reagent, Promega G7573) to time zero wells in the reference plate followed by a 10 minutes incubation and luminescence reading at 0.1 ms. using the PHERAstar FS microplate reader (BMG Labtech).
After 72 hours incubation, the treated plates were measured in the same way as the day 0 plate mentioned above.

Where [8] appears, read: read-out: Antiproli AMO-1 [M] IC50.

BCL-2, sequence (P10415 other isoform, or with tags, fused parts or gaps): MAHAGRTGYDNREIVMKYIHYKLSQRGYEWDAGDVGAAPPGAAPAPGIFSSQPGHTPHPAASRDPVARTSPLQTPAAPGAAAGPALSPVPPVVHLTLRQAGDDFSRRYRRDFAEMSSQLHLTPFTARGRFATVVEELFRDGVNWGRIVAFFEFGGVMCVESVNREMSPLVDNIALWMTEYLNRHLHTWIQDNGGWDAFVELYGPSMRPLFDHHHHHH

Regarding `CCc1c2c(nn1C)C(CCC1CCOCC1)N(C)S(=O)(=O)CCCn1c(C(=O)O)c(CCCOc3cccc4cc(F)ccc34)c3ccc(Cl)c-2c31` (single isomer, unassigned; enantiomer 3) [Example 63, (+)-4-chloro-3-ethyl-7-{3-[(6-fluoronaphthalen-1-yl)oxy]propyl}-2,14-dimethyl-15-[2-(oxan-4-yl)ethyl]-13,13-dioxo-10,11,12,13,14,15-hexahydro-2H-13lambda^6-pyrazolo[3′,4′:4,5][1,2,8]thiadiazacycloundecino[6,7,8-hi]indole-8-carboxylic acid (Enantiomer 3)], the IC50 in data set [1] (72 hours) is 7e-08 M; in data set [2] (setting [8]), 4e-08 M and 4.5e-08 M and 3.3e-08 M; in data set [4], 8.6e-08 M; in data set [6] it was 19 µM. Moreover, the values for the concentration giving a half-maximal response (EC50) in data set [3] (3 hours) and in data set [5] (3 hours) were 0.042 µM and 0.04 µM, respectively.

For `Cc1c2c(nn1C)CN(C)S(=O)(=O)CCCn1c(C(=O)O)c(CCCOc3cccc4ccccc34)c3ccc(Cl)c-2c31` (single isomer, unassigned; enantiomer 2) [Example 6, 4-Chloro-2,3,14-trimethyl-7-{3-[(naphthalen-1-yl)oxy]propyl}-13,13-dioxo-10,11,12,13,14,15-hexahydro-2H-13λ^6-pyrazolo[3′,4′:4,5][1,2,8]thiadiazacycloundecino[6,7,8-hi]indole-8-carboxylic acid-N-ethylethanamine salt (Enantiomer 2)], the half-maximal inhibitory concentration (IC50) in data set [1] (72 hours) was 1.1e-05 M; in data set [4] it was 1.7e-05 M; in data set [7] it was 2.02e-05 M. Moreover, the EC50 in data set [3] (3 hours) turned out to be 14 µM; in data set [5] (3 hours), 16 µM.

As to `Cc1c2c(nn1C)CNS(=O)(=O)CCCn1c(C(=O)O)c(CCCOc3cccc4cc(F)ccc34)c3ccc(Cl)c-2c31` (single isomer, unassigned; enantiomer 1) [Example 51, 4-chloro-7-{3-[(6-fluoronaphthalen-1-yl)oxy]propyl}-2,3-dimethyl-13,13-dioxo-10,11,12,13,14,15-hexahydro-2H-13lambda^6-pyrazolo[3′,4′:4,5][1,2,8]thiadiazacycloundecino[6,7,8-hi]indole-8-carboxylic acid (Enantiomer 1)], the concentration for half-maximal inhibition (IC50) was 4.1e-07 M in data set [1] (72 hours), 9.8e-07 M in data set [4] and > 20 µM in data set [6]. In addition, the EC50 was 0.49 µM in data set [3] (3 hours) and 0.34 µM in data set [5] (3 hours).

In the case of `Cc1c2c(nn1C)CN(C)S(=O)(=O)CCCn1c(C(=O)O)c(CCCOc3cccc4ccccc34)c3ccc(Cl)c-2c31` (single isomer, unassigned; enantiomer 1) [Example 5, 4-Chloro-2,3,14-trimethyl-7-{3-[(naphthalen-1-yl)oxy]propyl}-13,13-dioxo-10,11,12,13,14,15-hexahydro-2H-13λ^6-pyrazolo[3′,4′:4,5][1,2,8]thiadiazacycloundecino[6,7,8-hi]indole-8-carboxylic acid-N-ethylethanamine salt (Enantiomer 1)], the concentration for half-maximal inhibition (IC50) in data set [1] (72 hours) was found to be 5.1e-07 M; in data set [2] (listed as 05, read-out: Antiproli AMO-1 [M] IC50), 1.5e-06 M; in data set [4] it was 7.1e-07 M. Besides, the EC50 in data set [3] (3 hours) was 0.59 µM; in data set [5] (3 hours) it was 0.13 µM.

As to `Cc1c2c(nn1C)C(CCN1CCOCC1)N(C)S(=O)(=O)CCCn1c(C(=O)O)c(CCCOc3cccc4cc(F)ccc34)c3ccc(Cl)c-2c31` (single isomer, unassigned; enantiomer 2) [Example 67, 4-chloro-7-{3-[(6-fluoronaphthalen-1-yl)oxy]propyl}-2,3,14-trimethyl-15-[2-(morpholin-4-yl)ethyl]-13,13-dioxo-10,11,12,13,14,15-hexahydro-2H-13lambda^6-pyrazolo[3′,4′:4,5][1,2,8]thiadiazacycloundecino[6,7,8-hi]indole-8-carboxylic acid (Enantiomer 2)], the IC50 in data set [1] (72 hours) turned out to be 6.7e-09 M; in data set [4], 1.8e-08 M. Also, the results for the EC50 in data set [3] (3 hours) and in data set [5] (3 hours) were 0.012 µM and 0.0073 µM, respectively.

With `CCc1c2c(nn1C)CN(CCN1CCOCC1)S(=O)(=O)CCCn1c(C(=O)O)c(CCCOc3cccc4cc(F)ccc34)c3ccc(Cl)c-2c31` [Example 77, (rac)-13-chloro-12-ethyl-1-(3-((6-fluoronaphthalen-1-yl)oxy)propyl)-11-methyl-8-(2-morpholinoethyl)-5,6,9,11-tetrahydro-4H,8H-pyrazolo[3′,4′:4,5][1]thia[2,8]diazacycloundecino[6,7,8-hi]indole-2-carboxylic acid 7,7-dioxide], the half-inhibitory concentration (IC50) was 7.2e-06 M in data set [1] (Homo sapiens, SU-DHL-5, 72 h); 1.3e-05 M in data set [4] (Homo sapiens, SU-DHL10, 5 h); > 20 µM in data set [6]. Moreover, the EC50 was determined as 14 µM in data set [3] (Homo sapiens, SU-DHL10, 3 h) and 4.8 µM in data set [5] (Homo sapiens, SU-DHL-5, 3 h).

In the case of `CCc1c2c(nn1C)C(CCC1CCOCC1)N(C)S(=O)(=O)CCCn1c(C(=O)O)c(CCCOc3cccc4cc(F)ccc34)c3ccc(Cl)c-2c31` (single isomer, unassigned; enantiomer 1) [Example 61, (+)-4-chloro-3-ethyl-7-{3-[(6-fluoronaphthalen-1-yl)oxy]propyl}-2,14-dimethyl-15-[2-(oxan-4-yl)ethyl]-13,13-dioxo-10,11,12,13,14,15-hexahydro-2H-13lambda^6-pyrazolo[3′,4′:4,5][1,2,8]thiadiazacycloundecino[6,7,8-hi]indole-8-carboxylic acid (Enantiomer 1)], the IC50 in data set [1] (72 hours) was 3.9e-08 M; in data set [2] (setting [8]), 2.5e-08 M and 2.8e-08 M; in data set [4] it was 4.9e-08 M; in data set [6], 16 µM. Besides, the EC50 in data set [3] (3 hours) is 0.024 µM; in data set [5] (3 hours), 0.022 µM.
